Legend:
[1] = biological target: T1, full length Keap1 protein / full length NRF2 protein (Homo sapiens, UniProt Q14145); test: NRF2-Keap1 TR-FRET Low Protein Assay; format: binding
T1 construct: full length NRF2 protein and full length Keap1 protein (Keap1 exists a dimer) are used; His
From the text: In the NRF2-Keap1 TR-FRET (time-resolved fluorescence resonance energy transfer) low protein assay, full length NRF2 protein and full length Keap1 protein (Keap1 exists a dimer) are used. The assay detects a compound's ability to displace the binding of Keap1 FlagHis with biotinylated Avi-NRF2 protein. Biotin-NRF2 binds to streptavidin-europium (a component of the detection mix) and Keap1 FlagHis is recognized by anti-Flag APC (allophycocyanin) antibody (also a component of the detection mix). If binding occurs between the two proteins, there will be an energy transfer from the Eu+3 (donor) at 615 nm to the APC (acceptor) at 665 nm. A potential NRF2 inhibitor will cause a reduction in the TR-FRET signal by interfering with the binding of Keap1 to NRF2.
Ten nanoliters of 100× compound dose response curves (serial 3-fold dilutions) in DMSO were stamped using an Echo liquid handling system (Labcyte) into 384-well, low volume, black assay plates (Greiner, #784076), with DMSO in columns 6 and 18. An additional 90 nl DMSO was added to each well, to bring the total volume to 100 nl per well. The top concentration of compound was located in columns 1 and 13, with the serial dilutions going across the row. All reagents were diluted in assay buffer (50 mM Tris, pH 8.0, 5 mM MgCl2, 100 mM NaCl, 0.005% BSA, 1 mM DTT, and 2 mM CHAPS. The BSA, DTT, and CHAPS were added to the assay buffer on the day of assay. Using a Multidrop Combi (Thermo Electron Corporation) equipped with a metal tip dispenser, 5 ul of 1.25 nM Keap1 FlagHis protein was added to all wells of the compound plate, with the exception of the wells in column 18. Wells in column 18 received 5 ul of assay buffer instead. Plates were centrifuged at 500 rpm for 1 minute, covered with a plate lid, and incubated at 37° C. for 2.25 hours. Plates were then removed from the incubator and allowed to cool to RT for 15 minutes. Five microliters of 2.5 nM biotin-NRF2 protein was then added to all wells of the plates and the plates were spun at 500 rpm for 1 minute, followed by incubating at 4° C. for 1.25 hours. The plates were then allowed to warm to RT for 15 minutes, followed by the addition of 10 ul of detection mix (1 nM Streptavidin Eu+W1024 and 5 ug/ml mouse anti-DYKDDDDK IgG conjugated to SureLight APC antibody; both from Columbia Biosciences) to all wells. Plates were spun at 500 rpm for 1 minute, incubated for 1 hour at RT, and read on an Envision plate reader using a 320 nm excitation filter and 615 nm and 665 nm emission filters. Compound response (% inhibition) and potency (pIC50) were calculated based on the ratio of the two emissions (665 nm/615 nm) and then the transformed data was normalized against controls in the assay (control 1=1% DMSO in the presence of NRF2 and Keap1 protein and control 2=1% DMSO in the presence of only the NRF2 protein). Data analysis was handled using the software package Abase XE (Surrey, United Kingdom). The % inhibition values were calculated from the ratio (transformed) data by the equation:
100−(100*(compound response−average control 2)/(average control 1−average control2)).
For calculation of pIC50s, Abase XE used a four parameter equation.
IC50s<10 nM (+++++), IC50s 10-100 nM (++++), IC50s 100 nM-1 uM (+++), IC50s 1-10 uM (++). and IC50s 10 uM-100 uM (+), IC50s>100 uM (−), or were not determined (ND).

[2] = system: NQO1 specific enzyme activity in BEAS-2B cells; test: BEAS-2B NQO1 MTT Assay; format: cell-based; details: Homo sapiens; NQO1 specific activity induction, BEAS-2B cells, 48 hours; read-out: EC50
Method in brief: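 BEAS-2B cells plated overnight, treated with compound for 48 h at 37° C, then lysed; NQO1 activity measured kinetically by MTT cocktail at 570 nm over 30 min, with lysate aliquot for Cell Titer Glo. pEC50 from 3-parameter fit of ΔOD/min versus log concentration.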

T1 sequence (Q14145 whole entry): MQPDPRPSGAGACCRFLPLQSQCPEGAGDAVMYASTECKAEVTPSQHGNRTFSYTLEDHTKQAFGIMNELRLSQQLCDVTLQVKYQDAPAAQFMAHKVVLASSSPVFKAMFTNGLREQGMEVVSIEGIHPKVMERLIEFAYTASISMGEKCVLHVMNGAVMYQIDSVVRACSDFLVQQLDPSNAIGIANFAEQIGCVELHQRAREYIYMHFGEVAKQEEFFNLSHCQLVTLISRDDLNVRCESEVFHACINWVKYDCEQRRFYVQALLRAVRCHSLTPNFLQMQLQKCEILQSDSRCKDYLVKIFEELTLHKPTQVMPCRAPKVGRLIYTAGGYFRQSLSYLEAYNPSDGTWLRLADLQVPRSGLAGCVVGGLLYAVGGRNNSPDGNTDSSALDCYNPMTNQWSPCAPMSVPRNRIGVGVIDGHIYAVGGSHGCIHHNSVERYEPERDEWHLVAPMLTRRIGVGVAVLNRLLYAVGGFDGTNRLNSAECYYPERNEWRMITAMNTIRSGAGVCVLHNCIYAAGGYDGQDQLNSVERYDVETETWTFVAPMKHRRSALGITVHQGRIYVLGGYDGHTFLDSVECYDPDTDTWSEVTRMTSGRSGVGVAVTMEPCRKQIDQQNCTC

Row | EC50 [1] | SMILES | EC50 [2]
1 | 100 to 1000 nM | C[C@H]1Cc2ccccc2S(=O)(=O)N(Cc2cccc(-n3ncc(C(=O)O)c3[C@@H]3C[C@H]3c3cn(C)nn3)c2)C1 [Example 15, 1-(3-(((S)-4-methyl-1,1-dioxido-4,5-dihydrobenzo[f][1,2]thiazepin-2(3H)-yl)methyl)phenyl)-5-((trans)-2-(1-methyl-1H-1,2,3-triazol-4-yl)cyclopropyl)-1H-pyrazole-4-carboxylic acid] | 1000 to 10000 nM
2 | 1000 to 10000 nM | CC[C@@H]1CN(Cc2cccc(-n3ncc(C(=O)O)c3[C@@H]3C[C@H]3c3cnn(C)c3)c2)S(=O)(=O)c2ccccc2O1 [Example 31, 1-(3-(((R)-4-ethyl-1,1-dioxido-3,4-dihydro-2H-benzo[b][1,4,5]oxathiazepin-2-yl)methyl)-phenyl)-5-(trans-2-(1-methyl-1H-pyrazol-4-yl)cyclopropyl)-1H-pyrazole-4-carboxylic acid] | 1000 to 10000 nM
3 | 10000 to 100000 nM | COc1ccccc1S(=O)(=O)N(Cc1cccc(-n2ncc(C(=O)O)c2[C@@H]2C[C@H]2c2cn(C)nn2)c1)C1CC1 (racemic) [Example 53, 1-(3-((N-cyclopropyl-2-methoxyphenylsulfonamido)methyl)phenyl)-5-((trans)-2-(1-methyl-1H-1,2,3-triazol-4-yl)cyclopropyl)-1H-pyrazole-4-carboxylic acid] | 100 to 1000 nM
4 | 100 to 1000 nM | CC[C@@H]1Cc2ccccc2CN(Cc2cccc(-n3ncc(C(=O)O)c3[C@@H]3C[C@H]3c3cn(C)nn3)c2)C1 [Example 10] | 1000 to 10000 nM
5 | 100 to 1000 nM | CN(Cc1cccc(-n2ncc(C(=O)O)c2[C@@H]2C[C@H]2c2cn(C)nn2)c1)S(=O)(=O)c1ccccc1Oc1ccccc1 (relative stereo) [Example 38, 5-((trans)-2-(1-methyl-1H-1,2,3-triazol-4-yl)cyclo-propyl)-1-(3-((N-methyl-2-phenoxyphenyl-sulfonamido)-methyl)phenyl)-1H-pyrazole-4-carboxylic acid] | 1000 to 10000 nM
6 | 1000 to 10000 nM | C[C@H]1Cc2cc(C(F)(F)F)ccc2S(=O)(=O)N(Cc2cccc(-n3ncc(C(=O)O)c3[C@@H]3C[C@H]3c3cn(C)nn3)c2)C1 (racemic) [Example 19, 1-(3-((4-methyl-1,1-dioxido-7-(trifluoromethyl)-4,5-dihydro-benzo[f][1,2]thiazepin-2(3H)-yl)methyl)phenyl)-5-((trans)-2-(1-methyl-1H-1,2,3-triazol-4-yl)cyclopropyl)-1H-pyrazole-4-carboxylic acid] | 1000 to 10000 nM
7 | 1000 to 10000 nM | CC[C@@H]1CN(Cc2cc(-n3ncc(C(=O)O)c3[C@@H]3C[C@H]3c3cn(C)nn3)ccc2C)Cc2ccccc2O1 [Example 28] | 100 to 1000 nM
8 | 1000 to 10000 nM | CN(Cc1cccc(-n2ncc(C(=O)O)c2[C@@H]2C[C@H]2c2cn(C)nn2)c1)S(=O)(=O)c1c(Cl)cccc1C(F)(F)F (racemic) [Example 41, 1-(3-((2-chloro-N-methyl-6-(trifluoro-methyl)phenyl-sulfonamido)-methyl)phenyl)-5-((trans)-2-(1-methyl-1H-1,2,3-triazol-4-yl)cyclo-propyl)-1H-pyrazole-4-carboxylic acid] | 1000 to 10000 nM
9 | 100 to 1000 nM | CN(Cc1cccc(-n2ncc(C(=O)O)c2[C@@H]2C[C@H]2c2cn(C)nn2)c1)S(=O)(=O)c1ccc(-c2ccccc2)cc1 (relative stereo) [Example 39, 5-((trans)-2-(1-methyl-1H-1,2,3-triazol-4-yl)cyclo-propyl)-1-(3-((N-methyl-[1,1′-biphenyl]-4-ylsulfonamido)-methyl)phenyl)-1H-pyrazole-4-carboxylic acid] | 1000 to 10000 nM
10 | 100 to 1000 nM | CC[C@H]1Cc2ccccc2CN(Cc2cccc(-n3ncc(C(=O)O)c3[C@@H]3C[C@H]3c3cn(C)nn3)c2)C1 [Example 11] | 1000 to 10000 nM
11 | 10 to 100 nM | C[C@H]1Cc2ccc(C(F)(F)F)cc2S(=O)(=O)N(Cc2cccc(-n3ncc(C(=O)O)c3[C@@H]3C[C@H]3c3cn(C)nn3)c2)C1 (racemic) [Example 16, 1-(3-((4-methyl-1,1-dioxido-8-(trifluoromethyl)-4,5-dihydro-benzo[f][1,2]thiazepin-2(3H)-yl)methyl)phenyl)-5-((trans)-2-(1-methyl-1H-1,2,3-triazol-4-yl)cyclopropyl)-1H-pyrazole-4-carboxylic acid] | 100 to 1000 nM
12 | 1000 to 10000 nM | CCOc1ccccc1S(=O)(=O)N(C)Cc1cccc(-n2ncc(C(=O)O)c2[C@@H]2C[C@H]2c2cn(C)nn2)c1 (racemic) [Example 45, 1-(3-((2-ethoxy-N-methylphenylsulfonamido)methyl)phenyl)-5-((trans)-2-(1-methyl-1H-1,2,3-triazol-4-yl)cyclopropyl)-1H-pyrazole-4-carboxylic acid] | 1000 to 10000 nM
13 | 10 to 100 nM | CC[C@H]1Cc2ccccc2S(=O)(=O)N(Cc2cccc(-n3ncc(C(=O)O)c3[C@@H]3C[C@H]3c3cn(C)nn3)c2)C1 [Example 4] | 100 to 1000 nM
14 | < 10 nM | CCCC[C@H]1Cc2ccc(C(F)(F)F)cc2S(=O)(=O)N(Cc2cccc(-n3ncc(C(=O)O)c3[C@@H]3C[C@H]3c3cn(C)nn3)c2)C1 [Example 21, 1-(3-(((S)-4-butyl-1,1-dioxido-8-(trifluoromethyl)-4,5-dihydrobenzo[f][1,2]thiazepin-2(3H)-yl)methyl)phenyl)-5-((1R,2R)-2-(1-methyl-1H-1,2,3-triazol-4-yl)cyclopropyl)-1H-pyrazole-4-carboxylic acid] | < 1 nM
15 | 100 to 1000 nM | C[C@H]1Cc2cc(C(F)(F)F)ccc2S(=O)(=O)N(Cc2cccc(-n3ncc(C(=O)O)c3[C@@H]3C[C@H]3c3cnn(C)c3)c2)C1 [Example 30, 1-(3-(((S)-4-Methyl-1,1-dioxido-7-(trifluoromethyl)-4,5-dihydrobenzo[f][1,2]thiazepin-2(3H)-yl)methyl)phenyl)-5-(trans-2-(1-methyl-1H-pyrazol-4-yl)cyclopropyl)-1H-pyrazole-4-carboxylic acid] | 1000 to 10000 nM
16 | 10 to 100 nM | CC[C@@H]1CN(Cc2cc(-n3ncc(C(=O)O)c3C3C[C@H]3c3cn(C)nn3)ccc2C)S(=O)(=O)c2ccccc2O1 (some centres unmarked) [Example 25] | 1000 to 10000 nM
17 | 1000 to 10000 nM | COc1ccc(Cl)cc1S(=O)(=O)N(C)Cc1cccc(-n2ncc(C(=O)O)c2[C@@H]2C[C@H]2c2cn(C)nn2)c1 (racemic) [Example 40, 1-(3-((5-chloro-2-methoxy-N-methylphenyl-sulfonamido)-methyl)phenyl)-5-((trans)-2-(1-methyl-1H-1,2,3-triazol-4-yl)cyclo-propyl)-1H-pyrazole-4-carboxylic acid] | 1000 to 10000 nM
18 | 1000 to 10000 nM | COc1cc([N+](=O)[O-])ccc1S(=O)(=O)N(C)Cc1cccc(-n2ncc(C(=O)O)c2[C@@H]2C[C@H]2c2cn(C)nn2)c1 (racemic) [Example 44, 1-(3-((2-methoxy-N-methyl-4-nitrophenylsulfonamido)methyl)phenyl)-5-((trans)-2-(1-methyl-1H-1,2,3-triazol-4-yl)cyclopropyl)-1H-pyrazole-4-carboxylic acid] | 1000 to 10000 nM
19 | 1000 to 10000 nM | CN(Cc1cccc(-n2ncc(C(=O)O)c2[C@@H]2C[C@H]2c2cn(C)nn2)c1)S(=O)(=O)c1cccc2cccnc12 (racemic) [Example 51, 5-((trans)-2-(1-methyl-1H-1,2,3-triazol-4-yl)cyclopropyl)-1-(3-((N-methylquinoline-8-sulfonamido)methyl)phenyl)-1H-pyrazole-4-carboxylic acid] | 100 to 1000 nM

— patent US20200071310A1, “N-ARYL PYRAZOLES AS NRF2 REGULATORS” (GLAXOSMITHKLINE INTELLECTUAL PROPERTY DEVELOPMENT LIMITED, priority 2016, published 2020)
